The test system of one experiment is ACE. The following applies: cited from earlier work; for IC50: read-out: IC50, ACE inhibition. The text has this: Marine species account for about half of the world’s total biodiversity. This diversity, together with the availability of marine resources, have driven the search for new antihypertensive agents, which could be administered as functional foods or dietary supplements. Since the first discovery of a marine-derived peptide with ACE-inhibitory activity, researchers have identified a variety of antihypertensive peptides in hydrolysates from marine species, such as Synodus macrops

Experiment [1] has as its target T1, ACE (from rabbit lung) (Oryctolagus cuniculus, UniProt P12822).
T1 construct: ACE (from rabbit lung); purchased Sigma Chemicals Co. (St. Louis, MO, USA); host or cells: rabbit lung tissue
T1 sequence (P12822 34-1310): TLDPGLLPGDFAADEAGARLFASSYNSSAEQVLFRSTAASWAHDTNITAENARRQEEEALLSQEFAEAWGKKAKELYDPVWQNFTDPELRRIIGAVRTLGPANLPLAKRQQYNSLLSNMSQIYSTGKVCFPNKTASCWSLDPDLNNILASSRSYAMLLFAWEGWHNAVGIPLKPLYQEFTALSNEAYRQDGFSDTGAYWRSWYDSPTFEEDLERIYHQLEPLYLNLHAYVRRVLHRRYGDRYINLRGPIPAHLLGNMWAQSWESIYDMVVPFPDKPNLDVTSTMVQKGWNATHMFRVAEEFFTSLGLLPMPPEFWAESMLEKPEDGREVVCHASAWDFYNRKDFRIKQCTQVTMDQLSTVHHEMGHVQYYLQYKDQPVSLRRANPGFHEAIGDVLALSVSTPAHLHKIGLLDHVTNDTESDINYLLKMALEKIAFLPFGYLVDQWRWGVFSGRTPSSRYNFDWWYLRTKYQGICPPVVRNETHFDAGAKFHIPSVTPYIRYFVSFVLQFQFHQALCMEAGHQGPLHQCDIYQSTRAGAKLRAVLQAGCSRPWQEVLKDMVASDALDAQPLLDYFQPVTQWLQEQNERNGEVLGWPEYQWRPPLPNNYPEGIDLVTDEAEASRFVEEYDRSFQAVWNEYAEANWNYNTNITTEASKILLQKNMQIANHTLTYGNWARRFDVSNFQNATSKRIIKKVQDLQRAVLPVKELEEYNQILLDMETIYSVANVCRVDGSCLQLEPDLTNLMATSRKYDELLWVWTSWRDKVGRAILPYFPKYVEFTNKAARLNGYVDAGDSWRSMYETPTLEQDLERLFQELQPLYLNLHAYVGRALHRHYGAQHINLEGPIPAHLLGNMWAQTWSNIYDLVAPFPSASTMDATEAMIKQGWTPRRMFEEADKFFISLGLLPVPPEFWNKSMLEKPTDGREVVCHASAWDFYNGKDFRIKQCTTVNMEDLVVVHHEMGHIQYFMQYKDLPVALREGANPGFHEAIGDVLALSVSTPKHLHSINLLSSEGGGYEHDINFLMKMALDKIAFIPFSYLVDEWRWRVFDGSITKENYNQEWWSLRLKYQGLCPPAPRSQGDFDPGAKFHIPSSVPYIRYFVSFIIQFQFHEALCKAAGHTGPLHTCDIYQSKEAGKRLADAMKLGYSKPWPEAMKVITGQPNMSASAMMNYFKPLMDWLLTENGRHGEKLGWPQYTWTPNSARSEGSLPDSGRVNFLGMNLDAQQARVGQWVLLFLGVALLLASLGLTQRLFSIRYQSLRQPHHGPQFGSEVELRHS
The experiment in a line: ACE inhibitory activity (HHL substrate, HPLC of hippuric acid). In kind it is biochemical. The note with it: synthetic peptide, 37.5 °C 1 h, HPLC 228 nm, read-out: IC50 value, ACE inhibition. The text has this:
Trypsin (from bovine pancreas, 200 U/mg) and pepsin (from porcine gastric mucosa, 300 U/mg) were purchased from YTHX Biotechnology Co., Ltd. (Beijing, China). ACE (from rabbit lung), and the ACE synthetic substrate hippuryl-L-histidyl-L-leucine (HHL) were purchased from Sigma Chemicals Co. (St. Louis, MO, USA). Other chemicals and reagents used were of analytical grade, except acetonitrile and trifluoroacetic acid (TFA), which were HPLC grade (Sinopharm Chemical Reagent Co., Ltd, Shanghai, China).
To determine the ACE inhibitory activity, we used the method described by D.W.Cushman and Lisete Paiva, with slight modifications. Briefly, 120 μL of 5 mM HHL solution and 20 μL of 1 mg/mL sample solution were mixed thoroughly and pre-incubated for 5 min at 37.5 °C. The control was prepared by replacing the sample solution with 20 μL of 300 mM NaCl in 100 mM borate buffer (pH 8.3). Then, 10 μL of ACE (0.1 U/mL) solution was added, tubes were mixed well, and incubated at 37.5 °C for 1 h in a water bath. […] The reaction solutions were then filtered through a 0.45 μm microporous membrane and quantified by using a ZORBAX SB-C18 analytical column (4.6 mm × 250 mm, 5 μm, 25 °C) and an Agilent HPLC ChemStation, consisting of a G1311C quaternary pump VL, a G1329B standard autosampler, a G1316A column oven, and a G1314F variable wavelength detector. […] Hippuric acid (HA) was detected at 228 nm. […]

Experiment [2] has as its target T1, ACE (from rabbit lung). The experiment in a line: Stability of ACE inhibitory activity in simulated gastric and intestinal fluid. In kind it is in vitro ADME. The note with it: read-out: ACE inhibitory activity of the control (undigested peptide).
Description: Simulated gastric fluid (SGF[sp]): Concentrated hydrochloric acid (37%) was diluted to a 9.5% to 10.5% solution. Then, 800 mL of water and 10 g of pepsin were added to 16.4 mL of this diluted hydrochloric acid solution, mixed well, and the volume completed to 1000 mL with water.
Simulated intestinal fluid (SIF[sp]): 6.8 g of KH2PO4 was dissolved in 500 mL of water, and the pH was adjusted to 6.8 with 0.1 M NaOH. Then ten grams of trypsin were dissolved in an appropriate amount of water, added to the solution described above, and diluted to 1000 mL with water.
The in vitro stability of the ACE inhibitory peptide in the simulated gastrointestinal environments was determined according to the method described by Yu et al [68]. […] (0.5 mg/mL) and incubated for 2 h at 37.5 °C. In addition, the peptide solution was first incubated with SGF[sp] at 37.5 °C for 2 h, the solvent was removed by means of a centrifugal filter concentrator, and was then incubated with SIF[sp] for 2 h. The reaction mixtures were then boiled to inactivate the enzyme. After cooling to room temperature, samples were centrifuged at −4 °C (10000 rpm, 15 min) and the supernatant was adjusted to pH = 7 for the determination of the ACE inhibitory activity.
The mark [3] stands for this setting: from scorpion (Hemiscorpius lepturus) venom.

Read-outs that look alike come from different tables or passages of the source. Ends that are not written are not given here.

As for Tyr-Gln-Lys [YQK], the ACE inhibition mode result in the experiment on ACE (from bovine casein) is “competitive”. The IC50 is the concentration that inhibits the measured activity by half. For “SSSKAKKMP [antihypertensive peptide from shrimps]”, the IC50 in the experiment on ACE (peptide from shrimps) was 880 µM.

For the substance “IGPR [antihypertensive peptide from Salmo salar]”, the IC50 with ACE (peptides from Salmo salar) is 430 µM. As for YLYELAR [YLYELAR], in the experiment with ACE (setting [3]), the ACE inhibition mode entry was “competitive”. As to “AGPPGSDGQPGAK [antihypertensive peptide from Synodus macrops hydrolysate]”, the IC50 with ACE (peptide from Synodus macrops) is 420 µM. AFPYYGHHLG: the ACE inhibition mode result with ACE (setting [3]) is given as “competitive”.

Regarding VVSLSIPR, the ACE inhibition mode entry in the experiment with ACE (from pigeon pea (Cajanus cajan)) is given as “competitive”. WPMGF [WPMGF, Trp-Pro-Met-Gly-Phe]: the IC50 on ACE (from rabbit lung) [1] came to 789 µM. Besides, on ACE (from rabbit lung) [2], the inhibition at 500 µg/mL is 51.5 ± 0.72%. For the substance Arg-Tyr-Leu [RYL], the ACE inhibition mode result in the experiment on ACE (from Silkworm Pupa) is reported as “competitive”.

Source of the values: publication PMC6265983, “Identification and Molecular Docking Study of a Novel Angiotensin-I Converting Enzyme Inhibitory Peptide Derived from Enzymatic Hydrolysates of Cyclina sinensis” (Marine Drugs, 2018).
